Measured values published in publication PMC5464911, “SEL120-34A is a novel CDK8 inhibitor active in AML cells with high levels of serine phosphorylation of STAT1 and STAT5 transactivation domains” (Oncotarget, 2017).
Read-outs that look alike come from different tables or passages of the source.

Assays:
[1] = 14-days toxicology study, hematology; format: in vivo, CD-1 mice; conditions: for GRA / HCT / HGB / LYMPH / MONO / MPV / PLT / RBC / WBC: 14 days
Method: To evaluate toxicity of the SEL120-34A compound, a 14-days toxicology study was run in CD-1 female mice. The day before the first administration of vehicle (BID, PO) or test compound, mice were weighed and randomized into uniform groups (5 mice per group). Prior to use, the test compound was dissolved freshly in water and administered PO at indicated doses in a volume of 10 μl per 1 g of body weight. Body weight and the general condition of the animals were monitored daily. When the study finished on Day 15, mice were subjected to anesthesia, and blood was collected into tubes containing K2EDTA for analysis of hematology parameters (ABC Vet Animal Blood Counter).

STAT1 S727 = experiment: IFN-dependent STAT1 S727 phosphorylation in HCT-116 cells (WB); format: cell-based; conditions: IFNa or IFNg for 4 hours, increasing concentrations
Method: (B) SEL120-34A inhibits IFN-dependent phosphorylation of STAT1 S727. HCT-116 cells stimulated with IFNg for 4 h were treated with increasing doses of SEL120-34A, Flavopiridol (F) or vehicle DMSO (C) to determine changes in the phosphorylation of STAT1 S727 and Y701, as measured by WB. (*) unspecific band. (C) SEL120-34A inhibits serine phosphorylation of STAT1 S727 and STAT5 S726, whereas Ruxolitinib inhibits tyrosine phosphorylation of STAT1 Y701 and STAT5 Y694 in JAK2 V617F cells. SET-2 cells were treated with Ruxolitinib, SEL120-34A or vehicle DMSO (C) for 24 hours and protein levels of pS727, pY701 STAT1 and pS726, pY694 STAT5 were measured by WB. […]
0,1% SDS; 20 mM β-glicerol phosphate; 5 mM NaF; cat. # sc835), α-STAT5-pS726 (1:1000; Abcam, cat. # 1 mM Na3VO4) supplemented with protease inhibitors ab128896), α-STAT5-pY694 (1:1000; Cell Signaling, (Santa Cruz Biotechnology). […] Protein concentration in lysates (1:20000; Sigma, cat. # G9545) was measured by the Bradford assay and adjusted to achieve the same final concentration in each well (20-30 mRNA extraction from xenograft tissue μg protein/well). […] Prior to microarray analyses, the quality of the incubation with secondary donkey anti-rabbit antibodies RNA samples was determined using an Agilent 2100 conjugated to HRP, used at 1:4000 (Cell Signaling, Bioanalyzer (Agilent Technologies, CA, USA). […]

CDK9/CycT1 = target: T1, CDK9/CycT1 (Homo sapiens, UniProt P50750); experiment: CDK9/CycT1 kinase activity assay (ProQinase); format: biochemical; conditions: for remaining activity at 1 µM: Km ATP
T1 construct: purchased ProQinase
T1 sequence (P50750 whole entry): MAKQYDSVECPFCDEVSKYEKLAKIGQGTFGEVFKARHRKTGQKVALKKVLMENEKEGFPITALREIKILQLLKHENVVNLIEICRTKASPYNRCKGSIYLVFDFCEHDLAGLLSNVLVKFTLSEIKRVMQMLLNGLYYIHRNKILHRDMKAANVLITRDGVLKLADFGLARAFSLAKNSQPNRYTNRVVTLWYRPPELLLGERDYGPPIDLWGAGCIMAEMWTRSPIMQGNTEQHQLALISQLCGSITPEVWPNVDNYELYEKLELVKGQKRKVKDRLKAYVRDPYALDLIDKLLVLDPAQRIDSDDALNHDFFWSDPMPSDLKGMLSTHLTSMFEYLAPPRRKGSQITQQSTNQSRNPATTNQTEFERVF
T1 sequence (O60563 whole entry partner): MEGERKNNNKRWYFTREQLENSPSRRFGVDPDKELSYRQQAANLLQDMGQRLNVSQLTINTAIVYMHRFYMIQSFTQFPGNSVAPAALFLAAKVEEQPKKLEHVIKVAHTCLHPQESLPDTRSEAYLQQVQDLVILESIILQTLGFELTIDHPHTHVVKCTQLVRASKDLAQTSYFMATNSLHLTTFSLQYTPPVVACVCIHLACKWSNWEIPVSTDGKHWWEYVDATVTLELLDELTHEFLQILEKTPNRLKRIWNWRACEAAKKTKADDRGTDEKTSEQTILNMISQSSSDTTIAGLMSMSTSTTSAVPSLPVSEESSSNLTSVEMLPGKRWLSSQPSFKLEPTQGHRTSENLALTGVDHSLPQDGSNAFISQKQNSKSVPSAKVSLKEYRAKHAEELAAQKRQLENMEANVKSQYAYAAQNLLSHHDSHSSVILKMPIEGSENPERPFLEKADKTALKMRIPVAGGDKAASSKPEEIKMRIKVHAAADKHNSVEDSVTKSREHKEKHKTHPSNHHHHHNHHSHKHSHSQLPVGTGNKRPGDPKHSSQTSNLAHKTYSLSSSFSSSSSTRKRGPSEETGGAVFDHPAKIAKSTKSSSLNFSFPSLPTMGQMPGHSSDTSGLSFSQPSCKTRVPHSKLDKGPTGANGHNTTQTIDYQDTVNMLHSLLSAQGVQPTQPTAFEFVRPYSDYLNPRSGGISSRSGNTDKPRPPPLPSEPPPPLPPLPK
Description: www.impactjournals.com/oncotarget/ Oncotarget, Supplementary Materials 2017
Supplementary Figure 2: Activity of CDK9/CycT1 in the presence of SEL120-34A. […]

CDK3/CycE1 = CDK3/CycE1 (Homo sapiens, UniProt Q00526); experiment: CDK family single point inhibition assay; format: biochemical; conditions: Km ATP
Chain of CDK3/CycE1 (Q00526 whole entry): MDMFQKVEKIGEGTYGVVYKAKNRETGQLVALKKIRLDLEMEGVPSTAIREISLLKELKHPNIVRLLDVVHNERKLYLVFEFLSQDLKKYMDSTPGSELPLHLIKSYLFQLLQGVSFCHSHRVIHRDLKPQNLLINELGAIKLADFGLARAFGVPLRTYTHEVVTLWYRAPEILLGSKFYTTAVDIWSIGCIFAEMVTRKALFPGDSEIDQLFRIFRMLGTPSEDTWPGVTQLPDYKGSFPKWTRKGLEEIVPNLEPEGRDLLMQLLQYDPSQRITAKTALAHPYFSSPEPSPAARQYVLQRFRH
Chain of CDK3/CycE1 (P24864 whole entry partner): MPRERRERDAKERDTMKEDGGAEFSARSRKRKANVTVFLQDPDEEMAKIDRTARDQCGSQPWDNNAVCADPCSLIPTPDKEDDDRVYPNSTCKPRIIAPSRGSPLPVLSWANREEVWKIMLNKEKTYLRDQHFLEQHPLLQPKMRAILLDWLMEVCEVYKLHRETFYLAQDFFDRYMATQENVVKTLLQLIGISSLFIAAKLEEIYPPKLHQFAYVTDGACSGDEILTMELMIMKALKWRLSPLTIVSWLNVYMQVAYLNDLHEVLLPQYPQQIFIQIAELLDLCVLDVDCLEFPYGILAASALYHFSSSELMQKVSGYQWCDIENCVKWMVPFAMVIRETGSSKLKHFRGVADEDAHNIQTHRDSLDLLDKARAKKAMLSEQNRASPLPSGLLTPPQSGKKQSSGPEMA

**Q.** Which GRA ([1]; 30 mg/kg BID PO) does the source give for `Cc1c(Br)c(Br)c2c3c1nc(N1CCNCC1)n3CCC2` [SEL120-34A] here?
**A.** Its GRA is 34%.

**Q.** And the HCT ([1]; 30 mg/kg BID PO)?
**A.** The HCT was 47.7%.

**Q.** What about the HGB ([1]; 30 mg/kg BID PO) of the same compound?
**A.** Its HGB is 14.7 g/dL.

**Q.** And the LYMPH ([1]; 30 mg/kg BID PO)?
**A.** Its LYMPH is 60.2%.

**Q.** And the MONO ([1]; 30 mg/kg BID PO)?
**A.** The MONO was 5.7%.

**Q.** What about the MPV ([1]; 30 mg/kg BID PO) of the same compound?
**A.** The MPV was 6.6 μm3.

**Q.** And the PLT ([1]; 30 mg/kg BID PO)?
**A.** The PLT was 1305.4 103/mm3.

**Q.** What about the RBC ([1]; 30 mg/kg BID PO) of the same compound?
**A.** Its RBC is 9.5 106/mm3.

**Q.** And the WBC ([1]; 30 mg/kg BID PO)?
**A.** The WBC was 12.8 103/mm3.

**Q.** What about the GRA ([1]; 30 mg/kg QD PO) of the same compound?
**A.** The GRA was 25.9%.

**Q.** And the HCT ([1]; 30 mg/kg QD PO)?
**A.** Its HCT is 46.2%.

**Q.** What about the HGB ([1]; 30 mg/kg QD PO) of the same compound?
**A.** Its HGB is 14.7 g/dL.

**Q.** And the LYMPH ([1]; 30 mg/kg QD PO)?
**A.** Its LYMPH is 68.6%.

**Q.** What about the MONO ([1]; 30 mg/kg QD PO) of the same compound?
**A.** The MONO was 5.5%.

**Q.** What about the MPV ([1]; 30 mg/kg QD PO) of the same compound?
**A.** Its MPV is 6.1 μm3.

**Q.** What about the PLT ([1]; 30 mg/kg QD PO) of the same compound?
**A.** Its PLT is 1169.4 103/mm3.

**Q.** What about the RBC ([1]; 30 mg/kg QD PO) of the same compound?
**A.** Its RBC is 9 106/mm3.

**Q.** And the WBC ([1]; 30 mg/kg QD PO)?
**A.** The WBC was 10.1 103/mm3.

**Q.** And the GRA ([1]; 60 mg/kg QD PO)?
**A.** Its GRA is 29.2%.

**Q.** What about the HCT ([1]; 60 mg/kg QD PO) of the same compound?
**A.** The HCT was 46.4%.

**Q.** And the HGB ([1]; 60 mg/kg QD PO)?
**A.** The HGB was 14.1 g/dL.

**Q.** What about the LYMPH ([1]; 60 mg/kg QD PO) of the same compound?
**A.** Its LYMPH is 65.1%.

**Q.** And the MONO ([1]; 60 mg/kg QD PO)?
**A.** Its MONO is 5.7%.

**Q.** What about the MPV ([1]; 60 mg/kg QD PO) of the same compound?
**A.** Its MPV is 6.6 μm3.

**Q.** What about the PLT ([1]; 60 mg/kg QD PO) of the same compound?
**A.** Its PLT is 1050.6 103/mm3.

**Q.** What about the RBC ([1]; 60 mg/kg QD PO) of the same compound?
**A.** The RBC was 8.9 106/mm3.

**Q.** And the WBC ([1]; 60 mg/kg QD PO)?
**A.** Its WBC is 10.4 103/mm3.

**Q.** And the “alterations in the peripheral blood” value ([1]; subchronic 14 days treatment, healthy immunocompetent CD-1 mice)?
**A.** The value was “not associated with significant alterations”.

**Q.** And the “STAT1 S727 phosphorylation” value (STAT1 S727)?
**A.** Its value is “dose-depended inhibition”.

**Q.** What about the remaining activity at 1 µM (CDK9/CycT1; mean, read-out: % remaining activity @1μM CDK9/CycT1 Mean) of the same compound?
**A.** The remaining activity at 1 µM was 15%.

**Q.** What about the remaining activity at 1 µM (CDK9/CycT1; repeat 1, read-out: % remaining activity @1μM CDK9/CycT1 repeat 1) of the same compound?
**A.** The remaining activity at 1 µM was 14%.

**Q.** And the remaining activity at 1 µM (CDK9/CycT1; repeat 2, read-out: % remaining activity @1μM CDK9/CycT1 repeat 2)?
**A.** Its remaining activity at 1 µM is 16%.

**Q.** And the IC50 (CDK9/CycT1; CDK9/CycT1, Km ATP concentration)?
**A.** Its IC50 is 1070 nM.

**Q.** What about the “selectivity against CDK9” value (CDK9/CycT1; versus CDK8) of the same compound?
**A.** The value was “over 200 fold”.

**Q.** And the remaining activity at 1 µM (CDK3/CycE1; mean, read-out: % remaining activity @1μM CDK3/CycE1 Mean)?
**A.** The remaining activity at 1 µM was 89%.

**Q.** What about the remaining activity at 1 µM (CDK3/CycE1; repeat 1, read-out: % remaining activity @1μM CDK3/CycE1 repeat 1) of the same compound?
**A.** The remaining activity at 1 µM was 97%.

**Q.** And the remaining activity at 1 µM (CDK3/CycE1; repeat 2, read-out: % remaining activity @1μM CDK3/CycE1 repeat 2)?
**A.** Its remaining activity at 1 µM is 82%.
